Experiments:
Assay in all cases: Test D controlled growth environment herbicide test, pre- and postemergence
Assay type in all cases: in vivo
[1] = tested on: bluegrass (annual bluegrass, Poa annua); conditions: for Bluegrass plant response rating / Plant response rating (scale of 0 to 100), Bluegrass: 31 g ai/ha
Method in brief: (§1)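 Rating is visual, 0–100 scale (100 = complete control), made against untreated plants 14–21 d after treatment in controlled growth conditions. Postemergence sprays went onto 1- to 4-leaf plants in peat medium; preemergence sprays onto silt loam after sowing; formulation included a surfactant.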

[2] = tested on: buckwheat, wild (wild buckwheat, Polygonum convolvulus); conditions: for Buckwheat, Wild plant response rating / Plant response rating (scale of 0 to 100), Buckwheat, Wild: 31 g ai/ha
Method in brief: as §1

[3] = tested on: wheat, winter (winter wheat, Triticum aestivum); conditions: for Wheat, Winter plant response rating / Plant response rating (scale of 0 to 100), Wheat, Winter: 31 g ai/ha
Method in brief: as §1

[4] = tested on: ryegrass, Italian (Italian ryegrass, Lolium multiflorum); conditions: for Ryegrass, Italian plant response rating / Plant response rating (scale of 0 to 100), Ryegrass, Italian: 31 g ai/ha
Method in brief: as §1

[5] = tested on: canarygrass (Phalaris minor); conditions: for Canarygrass plant response rating / Plant response rating (scale of 0 to 100), Canarygrass: 31 g ai/ha
Method in brief: as §1

[6] = tested on: field poppy (Papaver rhoeas); conditions: for Field Poppy plant response rating / Plant response rating (scale of 0 to 100), Field Poppy: 31 g ai/ha
Method in brief: as §1

[7] = tested on: blackgrass (Alopecurus myosuroides); conditions: for Blackgrass plant response rating / Plant response rating (scale of 0 to 100), Blackgrass: 31 g ai/ha
Method in brief: as §1

[8] = tested on: galium (catchweed bedstraw, Galium aparine); conditions: for Galium plant response rating / Plant response rating (scale of 0 to 100), Galium: 31 g ai/ha
Method in brief: as §1

[9] = tested on: foxtail, green (green foxtail, Setaria viridis); conditions: for Foxtail, Green plant response rating / Plant response rating (scale of 0 to 100), Foxtail, Green: 31 g ai/ha
Method in brief: as §1

[10] = tested on: Russian thistle (Salsola kali); conditions: for Russian Thistle plant response rating / Plant response rating (scale of 0 to 100), Russian Thistle: 31 g ai/ha
Method in brief: as §1

kochia (Kochia scoparia) = conditions: for Kochia plant response rating / Plant response rating (scale of 0 to 100), Kochia: 31 g ai/ha
Method in brief: as §1

[11] = tested on: chickweed (common chickweed, Stellaria media); conditions: for Chickweed plant response rating / Plant response rating (scale of 0 to 100), Chickweed: 31 g ai/ha
Method in brief: as §1

[12] = tested on: pigweed (Amaranthus retroflexus); conditions: for Pigweed plant response rating / Plant response rating (scale of 0 to 100), Pigweed: 31 g ai/ha
Method in brief: as §1

[13] = Postemergence, scale 0 to 100 (0 no effect, 100 complete control)
[14] = Postemergence, 125 g ai/ha, visual rating on scale 0 (no effect) to 100 (complete control), 14 to 21 d
[15] = Postemergence, 250 g ai/ha, scale 0 to 100 (0 no effect, 100 complete control)
[16] = Preemergence, 62 g ai/ha, scale 0 to 100 (0 no effect, 100 complete control)
[17] = Preemergence, 125 g ai/ha, scale 0 to 100 (0 no effect, 100 complete control)
[18] = Preemergence, 250 g ai/ha, scale 0 to 100 (0 no effect, 100 complete control)
[19] = postemergence, 62 g ai/ha, scale 0 to 100, 0 no effect, 100 complete control

COc1nn(C)c(=O)c(-c2c(C)ccc3ccccc23)c1O [Compound 54]
65: Plant response rating, Canarygrass [5, 14] | Plant response rating, Foxtail, Green [9, 17] | Plant response rating, Foxtail, Green [9, 19]
35: Plant response rating, Bluegrass [1, 15] | Plant response rating, Wheat, Winter [3, 18] | Plant response rating (scale of 0 to 100), Ryegrass, Italian ([4]; Preemergence) | Canarygrass plant response rating [5, 13] | Plant response rating, Russian Thistle [10, 18]
60: Plant response rating, Foxtail, Green [9, 16] | Plant response rating, Kochia (kochia (Kochia scoparia); [16])
70: Plant response rating, Buckwheat, Wild [2, 17] | Field Poppy plant response rating [6, 13] | Plant response rating, Blackgrass [7, 14] | Plant response rating, Foxtail, Green [9, 14]
45: Plant response rating, Galium [8, 16] | Plant response rating, Kochia (kochia (Kochia scoparia); [18])
75: Plant response rating, Canarygrass [5, 15] | Plant response rating, Blackgrass [7, 15] | Plant response rating, Blackgrass [7, 18]
40: Plant response rating, Blackgrass [7, 19]
55: Plant response rating, Canarygrass [5, 16] | Plant response rating, Canarygrass [5, 19] | Plant response rating, Field Poppy [6, 16] | Foxtail, Green plant response rating [9, 13]
80: Plant response rating, Buckwheat, Wild [2, 18] | Ryegrass, Italian plant response rating [4, 13] | Plant response rating, Canarygrass [5, 17] | Plant response rating, Foxtail, Green [9, 15] | Russian Thistle plant response rating [10, 13] | Plant response rating, Russian Thistle [10, 19] | Plant response rating (scale of 0 to 100), Pigweed ([12]; Preemergence)
10: Bluegrass plant response rating [1, 13] | Plant response rating, Bluegrass [1, 16]
50: Plant response rating, Blackgrass [7, 17] | Plant response rating (scale of 0 to 100), Foxtail, Green ([9]; Preemergence)
100: Buckwheat, Wild plant response rating [2, 13] | Plant response rating, Buckwheat, Wild [2, 14] | Plant response rating, Buckwheat, Wild [2, 15] | Plant response rating, Buckwheat, Wild [2, 19] | Plant response rating, Ryegrass, Italian [4, 17] | Plant response rating, Ryegrass, Italian [4, 18] | Plant response rating, Field Poppy [6, 14] | Plant response rating, Field Poppy [6, 15] | Plant response rating, Field Poppy [6, 17] | Plant response rating, Field Poppy [6, 18] | Plant response rating, Field Poppy [6, 19] | Galium plant response rating [8, 13] | Plant response rating, Galium [8, 14] | Plant response rating, Galium [8, 15] | Plant response rating, Galium [8, 18] | Plant response rating, Galium [8, 19] | Plant response rating, Foxtail, Green [9, 18] | Plant response rating, Russian Thistle [10, 15] | Plant response rating, Kochia (kochia (Kochia scoparia); [14]) | Plant response rating, Kochia (kochia (Kochia scoparia); [15]) | Chickweed plant response rating [11, 13] | Plant response rating, Chickweed [11, 14] | Plant response rating, Chickweed [11, 15] | Plant response rating, Chickweed [11, 18] | Plant response rating, Chickweed [11, 19] | Pigweed plant response rating [12, 13] | Plant response rating, Pigweed [12, 14] | Plant response rating, Pigweed [12, 15] | Plant response rating, Pigweed [12, 16] | Plant response rating, Pigweed [12, 17] | Plant response rating, Pigweed [12, 18] | Plant response rating, Pigweed [12, 19]
90: Plant response rating, Ryegrass, Italian [4, 14] | Plant response rating, Ryegrass, Italian [4, 16] | Plant response rating, Canarygrass [5, 18] | Plant response rating (scale of 0 to 100), Field Poppy ([6]; Preemergence) | Plant response rating, Russian Thistle [10, 14] | Plant response rating, Chickweed [11, 16]
30: Plant response rating, Wheat, Winter [3, 15] | Plant response rating, Blackgrass [7, 16] | Plant response rating, Kochia (kochia (Kochia scoparia); [17])
25: Plant response rating, Bluegrass [1, 14] | Plant response rating, Bluegrass [1, 18] | Plant response rating, Wheat, Winter [3, 14] | Blackgrass plant response rating [7, 13] | Plant response rating, Russian Thistle [10, 17] | Plant response rating (scale of 0 to 100), Kochia (kochia (Kochia scoparia); Preemergence)
95: Plant response rating, Ryegrass, Italian [4, 15] | Plant response rating, Kochia (kochia (Kochia scoparia); [19]) | Plant response rating, Chickweed [11, 17]
0: Plant response rating (scale of 0 to 100), Bluegrass ([1]; Preemergence) | Plant response rating (scale of 0 to 100), Buckwheat, Wild ([2]; Preemergence) | Wheat, Winter plant response rating [3, 13] | Plant response rating (scale of 0 to 100), Wheat, Winter ([3]; Preemergence) | Plant response rating, Wheat, Winter [3, 16] | Plant response rating (scale of 0 to 100), Galium ([8]; Preemergence) | Plant response rating (scale of 0 to 100), Russian Thistle ([10]; Preemergence) | Plant response rating, Russian Thistle [10, 16]
15: Plant response rating, Bluegrass [1, 17] | Plant response rating, Bluegrass [1, 19] | Plant response rating, Wheat, Winter [3, 17] | Plant response rating (scale of 0 to 100), Canarygrass ([5]; Preemergence) | Plant response rating (scale of 0 to 100), Blackgrass ([7]; Preemergence) | Kochia plant response rating (kochia (Kochia scoparia); [13])
85: Plant response rating, Ryegrass, Italian [4, 19] | Plant response rating, Galium [8, 17] | Plant response rating (scale of 0 to 100), Chickweed ([11]; Preemergence)
5: Plant response rating, Buckwheat, Wild [2, 16] | Plant response rating, Wheat, Winter [3, 19]

Cc1ccc2ccccc2c1-c1c(O)c(C)nn(C)c1=O [Compound 59]
30: Plant response rating (scale of 0 to 100), Bluegrass ([1]; Preemergence)
70: Plant response rating, Wheat, Winter [3, 17] | Field Poppy plant response rating [6, 13] | Blackgrass plant response rating [7, 13] | Plant response rating, Foxtail, Green [9, 19]
10: Plant response rating (scale of 0 to 100), Wheat, Winter ([3]; Preemergence)
85: Plant response rating, Blackgrass [7, 14] | Plant response rating, Blackgrass [7, 15] | Plant response rating (scale of 0 to 100), Blackgrass ([7]; Preemergence) | Plant response rating, Foxtail, Green [9, 15] | Plant response rating, Foxtail, Green [9, 17] | Plant response rating, Russian Thistle [10, 14] | Plant response rating, Russian Thistle [10, 15] | Plant response rating, Pigweed [12, 19]
50: Plant response rating, Bluegrass [1, 16] | Plant response rating, Russian Thistle [10, 16]
20: Plant response rating (scale of 0 to 100), Buckwheat, Wild ([2]; Preemergence) | Plant response rating (scale of 0 to 100), Kochia (kochia (Kochia scoparia); Preemergence)
98: Plant response rating, Chickweed [11, 19]
80: Plant response rating, Bluegrass [1, 18] | Plant response rating, Wheat, Winter [3, 15] | Plant response rating, Wheat, Winter [3, 18] | Ryegrass, Italian plant response rating [4, 13] | Plant response rating (scale of 0 to 100), Canarygrass ([5]; Preemergence) | Plant response rating, Canarygrass [5, 19] | Plant response rating, Blackgrass [7, 19] | Russian Thistle plant response rating [10, 13] | Plant response rating, Russian Thistle [10, 17] | Plant response rating, Russian Thistle [10, 19] | Pigweed plant response rating [12, 13]
90: Plant response rating, Ryegrass, Italian [4, 14] | Plant response rating, Ryegrass, Italian [4, 15] | Plant response rating, Ryegrass, Italian [4, 19] | Plant response rating, Canarygrass [5, 14] | Plant response rating, Canarygrass [5, 15] | Plant response rating, Canarygrass [5, 16] | Plant response rating, Blackgrass [7, 16] | Plant response rating, Russian Thistle [10, 18]
100: Plant response rating, Buckwheat, Wild [2, 14] | Plant response rating, Buckwheat, Wild [2, 15] | Plant response rating, Buckwheat, Wild [2, 17] | Plant response rating, Buckwheat, Wild [2, 19] | Plant response rating (scale of 0 to 100), Ryegrass, Italian ([4]; Preemergence) | Plant response rating, Ryegrass, Italian [4, 16] | Plant response rating, Ryegrass, Italian [4, 17] | Plant response rating, Ryegrass, Italian [4, 18] | Plant response rating, Canarygrass [5, 18] | Plant response rating, Field Poppy [6, 15] | Plant response rating (scale of 0 to 100), Field Poppy ([6]; Preemergence) | Plant response rating, Field Poppy [6, 16] | Plant response rating, Field Poppy [6, 17] | Plant response rating, Field Poppy [6, 18] | Plant response rating, Blackgrass [7, 18] | Galium plant response rating [8, 13] | Plant response rating, Galium [8, 14] | Plant response rating, Galium [8, 15] | Plant response rating, Galium [8, 17] | Plant response rating, Galium [8, 18] | Plant response rating, Galium [8, 19] | Plant response rating, Foxtail, Green [9, 18] | Plant response rating, Kochia (kochia (Kochia scoparia); [15]) | Plant response rating, Kochia (kochia (Kochia scoparia); [18]) | Chickweed plant response rating [11, 13] | Plant response rating, Chickweed [11, 14] | Plant response rating, Chickweed [11, 15] | Plant response rating (scale of 0 to 100), Chickweed ([11]; Preemergence) | Plant response rating, Chickweed [11, 16] | Plant response rating, Chickweed [11, 17] | Plant response rating, Chickweed [11, 18] | Plant response rating, Pigweed [12, 14] | Plant response rating, Pigweed [12, 15] | Plant response rating, Pigweed [12, 16] | Plant response rating, Pigweed [12, 17] | Plant response rating, Pigweed [12, 18]
35: Wheat, Winter plant response rating [3, 13] | Plant response rating, Wheat, Winter [3, 16]
55: Plant response rating, Bluegrass [1, 14] | Plant response rating, Wheat, Winter [3, 14] | Plant response rating (scale of 0 to 100), Foxtail, Green ([9]; Preemergence)
25: Bluegrass plant response rating [1, 13]
75: Plant response rating, Bluegrass [1, 15] | Plant response rating, Bluegrass [1, 17] | Canarygrass plant response rating [5, 13] | Plant response rating, Field Poppy [6, 19] | Plant response rating, Foxtail, Green [9, 14] | Plant response rating, Foxtail, Green [9, 16]
95: Plant response rating, Buckwheat, Wild [2, 18] | Plant response rating, Canarygrass [5, 17] | Plant response rating, Field Poppy [6, 14] | Plant response rating, Blackgrass [7, 17] | Plant response rating (scale of 0 to 100), Galium ([8]; Preemergence) | Plant response rating, Galium [8, 16] | Kochia plant response rating (kochia (Kochia scoparia); [13]) | Plant response rating, Kochia (kochia (Kochia scoparia); [14]) | Plant response rating, Kochia (kochia (Kochia scoparia); [17]) | Plant response rating, Kochia (kochia (Kochia scoparia); [19]) | Plant response rating (scale of 0 to 100), Pigweed ([12]; Preemergence)
40: Plant response rating, Bluegrass [1, 19] | Plant response rating, Wheat, Winter [3, 19] | Plant response rating (scale of 0 to 100), Russian Thistle ([10]; Preemergence)
65: Buckwheat, Wild plant response rating [2, 13] | Plant response rating, Buckwheat, Wild [2, 16] | Foxtail, Green plant response rating [9, 13]
60: Plant response rating, Kochia (kochia (Kochia scoparia); [16])
